Laboratory results taken from patent US20120171123A1, “USES AND COMPOSITIONS FOR TREATMENT OF RHEUMATOID ARTHRITIS” (priority 2006, published 2012).
Marks after values point to notes of the source that are not given here.

Tested on: MTX-naïve adult patients with active, early RA (<3 years)
Test: Study J: radiographic progression (TSS, joint erosion, joint space narrowing)
Type: in vivo, human
Excerpt: The co-primary endpoints, comparing MTX alone with the combination at 1 year, were the ACR50 response (using non-responder imputation), and inhibition of radiographic progression, as measured by change in total Sharp score (TSS). In this study, the term “Major Clinical Response” (MCR) meant a continuous ACR70 response for 6 or more consecutive months.
At 1 and 2 years, the American College of Rheumatology (ACR) responses (ACR20, ACR50, and ACR70), the Disease Activity Score 28 (DAS28), and the change (Δ) in Total Sharp Score (TSS) were determined for all patients. Results were analyzed for the intention-to-treat (ITT) population using imputation for missing data. Clinical remission was defined as DAS28<2.6. The mean ΔTSS values at 1 year and 2 years (N=791) were determined for patients in each ACR response category (ACR20/50/70) and for patients with DAS28<2.6
Radiographic progression was measured by Total Sharp Score (TSS) at baseline, and 1 and 2 years in the intention to treat population (ITT) using imputation for missing data. In this analysis, patients were divided into 1 of 2 categories by disease duration at baseline: <6 months (Group 1) or 6 months to 3 years (Group 2). Mean changes in TSS were reported for both groups by each of the 3 treatment arms from baseline to Year 1 and from Year 1 to Year 2.
Radiographic progression was assessed by mean change from baseline in Total Sharp Score (TSS) and stratified into those with (ΔTSS>0.5) and without (Δ≦TSS 0.5). Patients were categorized as either having radiographic progression at 1 year (ΔTSS>0.5) or not (Δ≦TSS 0.5). A logistic regression model was used to identify predictors of radiographic disease progression by testing several baseline characteristics, including age, disease duration, RF status, TJC, SJC, joint erosions, and CRP. For analyses of CRP, patients were categorized as normal (CRP≦0.8 mg/dL) or abnormal (CRP>0.8 mg/dL).
Mean change from baseline in Total Sharp Score (TSS) was measured at 6 months, 1 year, and 2 years in the intention-to-treat (ITT) population using imputation for missing data. Patients were classified as having radiographic progression (mean change in TSS>0.5) or without radiographic progression (ΔTSS≦0.5). Patients with inadequate data were excluded from this analysis.
Patients in the Ada+MTX and the MTX arms were classified according to level of clinical response (non-responder (<ACR20), ACR20, ACR50, or ACR70) and radiographic progression (Yes or No (ΔTSS≦0.5)). The ΔTSS was analyzed overall, and for ACR subgroups. This included determination of mean ΔTSS and probability plots.
Study J was a 2-year, double-blind, active comparator-controlled, Phase III study. […] For each patient, radiographs of hands and feet were taken at baseline, 6 months, 1 year and 2 years and evaluated for joint erosions (JE) and joint space narrowing (JSN) by 2 blinded radiologists. Changes from baseline in the modified total Sharp score (TSS, 0-398) were calculated for patients in each treatment arm. Cumulative probability plots were generated by estimating the probability of exceeding a given change in TSS. For each treatment, we calculated the percentages of patients whose ΔTSS exceeded specified thresholds, and the probability of having a given ΔTSS (using cumulative probability plots). For each of 4 cumulative probability ranges, 0-10%, 10-50%, 50-90% and 90-100% (higher numbered ranges=greater ΔTSS), mean ΔTSS values were calculated. In previous reports, Study J radiographic analyses employed linear imputation. In the present analysis, only observed data were employed, with no imputation.

[1] = disease duration 6 months-3 years (n=333)

For “adalimumab: human anti-TNF mAb (HUMIRA, Abbott Laboratories), described in U.S. Pat. No. 6,090,382 as D2E7”, the “Mean change in TSS” value (1 year, ACR20 responders) was 2.3, the “mean change in JE score” value (1 year, ACR20 responders) was 1.0 and the “mean change in JSN” value (1 year, ACR20 responders) was 1.3. The “Mean change in TSS” value (1 year, ACR50 responders) was 1.7, the “mean change in JE score” value (1 year, ACR50 responders) was 0.8 and the “mean change in JSN” value (1 year, ACR50 responders) was 0.9. For the same substance, the “Mean change in TSS” value (1 year, ACR70 responders) was 1.1, the “mean change in JE score” value (1 year, ACR70 responders) was 0.5 and the “mean change in JSN” value (1 year, ACR70 responders) was 0.6. For the same substance, the “patients with no radiographic progression” value (1 year, abnormal baseline CRP normalized at 1 year) was 53%, the “patients with no radiographic progression” value (1 year, elevated CRP at both baseline and 1 year) was 32% and the “Mean change in TSS” value (1 year, patients with DAS28<2.6) was −0.1. For the same substance, the “% of patients with >4 change TSS” value (2 years) was 30.7%, the “% of patients with >10 change TSS” value (2 years) was 17.5% and the “% of patients with >20 change TSS” value (2 years) was 5.4%. The “patients with no radiographic progression (change in TSS ≦0.5)” value (2 years) was 45%, the “mean change in JE score” value (2 years, ACR20 responders) was 2.3 and the “mean change in JSN” value (2 years, ACR20 responders) was 2.2. The “mean change in TSS from baseline” value (2 years, ACR20 responders) was 4.5, the “mean change in JE score” value (2 years, ACR50 responders) was 1.5 and the “mean change in JSN” value (2 years, ACR50 responders) was 1.9. The “mean change in TSS from baseline” value (2 years, ACR50 responders) was 3.4, the “mean change in JE score” value (2 years, ACR70 responders) was 1.6 and the “mean change in JSN” value (2 years, ACR70 responders) was 1.9. For the same substance, the “mean change in TSS from baseline” value (2 years, ACR70 responders) was 3.5, the “Mean change in TSS” value (2 years, patients with DAS28<2.6) was 1.3 and the “Mean change in TSS” value (2 years, all points (0-100), observed data) was 4.7. For the same substance, the “Mean change in TSS” value (2 years, cumulative probability range 0-10) was −2.8, the “Mean change in TSS” value (2 years, cumulative probability range 50-90) was 4.7^† and the “Mean change in TSS” value (2 years, cumulative probability range 90-100) was 28.9. For the same substance, the “% of patients with >4 change TSS” value (6 months) was 0.5%, the “% of patients with >10 change TSS” value (6 months) was 6.5% and the “% of patients with >20 change TSS” value (6 months) was 10.6%. For the same substance, the “patients with no radiographic progression” value (6 months) was 63%, the “Mean change in TSS” value (6 months, all points (0-100), observed data) was 2.1* and the “Mean change in TSS” value (6 months, cumulative probability range 0-10) was −3.4. For the same substance, the “Mean change in TSS” value (6 months, cumulative probability range 90-100) was 13.6, the “Patients with No Radiographic Progression at 1 Year” value (CRP (BL and Year 1) Abnormal to Normal) was 53%* and the “Patients with No Radiographic Progression at 1 Year” value (CRP (BL and Year 1) Always Normal) was 91%. The “Patients with No Radiographic Progression at 1 Year” value (CRP (BL and Year 1) Never Normal) was 32%, the “No Progression at Month 6, %” value (Study J) was 63% and the “No Progression at Month 6, patients/total” value (Study J) was 172/271. For the same substance, the “No Progression at Month 6 and Year 2, %” value (Study J) was 63%, the “No Progression at Month 6 and Year 2, patients/Month-6 non-progressors” value (Study J) was 109/172 and the “Yr-2 Non-P, %” value (among Mo-6 Non-Progressors) was 63%. For the same substance, the “Yr-2 Non-P, number of patients” value (among Mo-6 Non-Progressors) was 109, the “Yr-2 Prog, %” value (among Mo-6 Non-Progressors) was 37% and the “Yr-2 Prog, number of patients” value (among Mo-6 Non-Progressors) was 63. For the same substance, the “Yr-2 Non-P, %” value (among Mo-6 Progressors) was 13 (13%), the “Yr-2 Non-P, number of patients” value (among Mo-6 Progressors) was 13 (13%) and the “Yr-2 Prog, %” value (among Mo-6 Progressors) was 87%. For the same substance, the “Yr-2 Prog, number of patients” value (among Mo-6 Progressors) was 86, the “mean change TSS during year 1” value [1] was 2.4 sharp score units and the “mean change TSS during year 2” value [1] was 3.2 sharp score units. The “mean change TSS during year 1” value (disease duration <6 months) was 3.4 sharp score units, the “mean change TSS during year 2” value (disease duration <6 months) was 2.1 sharp score units and the “Mo-6 Non-Progressors, % of arm” value (no progression = ΔTSS≦0.5) was 63%. The “Mo-6 Non-Progressors, number of patients” value (no progression = ΔTSS≦0.5) was 172, the “patients with no progression at year 2” value (no progression at month 6) was 63% and the “Mo-6 Progressors, % of arm” value (progression = ΔTSS>0.5) was 37%. The “Mo-6 Progressors, number of patients” value (progression = ΔTSS>0.5) was 99, the “patients with no progression at year 2” value (progression at month 6) was 13% and the “mean change from baseline in TSS” value (week 26, ITT with imputation) was 2.1**.
